According to article PMC2653189 (PLoS ONE, 2009):
Read-outs that look alike come from different tables or passages of the source.

What was measured:
[1] = system: MCF7; assay: Breast cancer cell line apoptosis assay (nucleosome ELISA); format: cell-based; settings: Homo sapiens, 24 hr, read-out: EC50 apoptosis induction
Procedure: (§1) Human breast carcinoma cell lines MDA-MB-468, MDA-MB-231, MBA-MD-435 and MCF7 were kindly provided by Dr. Powel H. Brown (Breast Cancer Center, Baylor College of Medicine). Breast cancer cell line, MDA-MB-453 was kindly provided by Dr. Shou Jiang (Breast Cancer Center, Baylor College of Medicine). All cell lines were grown in DMEM medium supplemented with 10% fetal bovine serum (FBS), 25,000 units penicillin G, 25,000 µg streptomycin, and 131.4 mg L-Glutamine and cultured in the incubator under the condition of 95% air, 5% CO2 at 37°C [33]. Cells were seeded at 2,500 cells/cm^2 into 12-well plates. At 80% confluency, cells were washed with PBS and supplemented with fresh medium containing compound or the topoisomerase I-inhibitor, camptothecin, at 0, 0.1, 0.3, 1, 3, 10, 30, 100, 300 µM. At 24 hours, treatment was terminated by removing the medium from each well. Cells were lysed with cell lysis buffer (600 µl for 30 minutes at 25°C). Cell lysate (200 µl) was centrifuged at 200 g for 10 minutes and 20 µl of each supernatant was assayed for nucleosomes using the Cell Death Detection ELISA (Roche Applied Science) as described by the manufacturer. The percent maximum nucleosome level was calculated by dividing the nucleosome level by the maximum nucleosome level achieved in the assay and multiplying by 100. This value was plotted as a function of the log compound concentration and the best-fitting curve and EC50 value determined using 4-Parameter Logistic Model/Dose Response/XLfit 4.2, IDBS software.
(§2) Figure 5 Apoptosis induction of breast cancer cell lines by compounds; selective apoptosis of cell lines that are Stat3 dependent. MDA-MB-468 (panel A), MDA-MB-231 (panel B), MDA-MB-435 (panel C), MCF7 (panel D) and MDA-MB-453 (panel E) were seeded in 12-well plates, grown overnight then treated with the indicated compound for 24 hr. Cells were centrifuged and the supernatants assayed for nucleosome levels by ELISA. The percent maximum nucleosome level was calculated (nucleosome level ÷ maximum nucleosome level achieved in the assay ×100) and plotted as a function of the log compound concentration. The best-fitting curve was determined using 4-ParameterLogistic Model/Dose Response One Site/XLfit 4.2, IDBS software and was used to determine the EC50 value (Table 3).

[2] = system: MDA-MB-231; assay: as above; format: cell-based; settings: Homo sapiens, 24 hr, read-out: EC50 apoptosis induction
Procedure: as §1, §2

[3] = system: MDA-MB-435; assay: as above; format: cell-based; settings: Homo sapiens, 24 hr, read-out: EC50 apoptosis induction
Procedure: as §1, §2

[4] = system: MDA-MB-453; assay: as above; format: cell-based; settings: Homo sapiens, 24 hr, read-out: EC50 apoptosis induction
Procedure: as §1, §2

[5] = system: MDA-MB-468; assay: as above; format: cell-based; settings: Homo sapiens, 24 hr, read-out: EC50 apoptosis induction
Procedure: as §1, §2

[6] = system: IFN-γ-mediated Stat1 phosphorylation; assay: Immunoblot of IFN-γ-mediated Stat1 phosphorylation in HepG2 cells; format: cell-based, human; settings: compound 300 µM 1 hour, IFN-γ 30 ng/ml 30 min
Procedure: (§3) The human hepatocellular carcinoma cell line (HepG2) was grown in 6-well plates under standard conditions. Cells were pretreated with compounds (0, 1, 3, 10, 30, 100 and 300 µM) for 1 hour then stimulated under optimal conditions with either interleukin-6 (IL-6; 30 ng/ml for 30 min) to activate Stat3 or interferon gamma (IFN-γ; 30 ng/ml for 30 min) to activate Stat1 [28]. Cultures were then harvested and proteins extracted using high-salt buffer, as described. Briefly, extracts were mixed with 2× sodium dodecyl sulfate (SDS) sample buffer (125 mM Tris-HCL pH 6.8; 4% SDS; 20% glycerol; 10% 2-mercaptoethanol) at a 1∶1 ratio and heated for 5 minutes at 100°C. Proteins (20 µg) were separated by 7.5% SDS-PAGE and transferred to polyvinylidene fluoride (PVDF) membrane (Millipore, Waltham, MA) and immunoblotted. Prestained molecular weight markers (BioRad; Hercules, CA) were included in each gel. Membranes were probed serially with antibody against Stat1 pY701 or Stat3 pY705 followed by antibody against Stat1 or Stat3 (Transduction labs, Lexington, KY) then antibody against β–actin (Abcam, Cambridge, MA). Membranes were stripped between antibody probing using Restore™ Western Blot Stripping Buffer (Thermo Fisher Scientific Inc., Waltham, MA) per the manufacturer's instructions. Horseradish peroxidase-conjugated goat-anti-mouse IgG was used as the secondary antibody (Invitrogen Carlsbad, CA) and the membranes were developed with enhanced chemiluminescence (ECL) detection system (Amersham Life Sciences Inc.; Arlington Heights, IL.).
Figure 2 Effect of compounds on ligand-mediated Stat3 and Stat1 phosphorylation. […] Cells were then stimulated with IL-6 (30 ng/ml) for 30 min. Protein extracts of cells were separated by SDS-PAGE, blotted and developed serially with antibodies to pStat3, total Stat3 and β-actin. Blots were stripped between each antibody probing. Band intensities were quantified by densitometry. The value of each pStat3 band was divided by its corresponding total Stat3 band intensity; the results were normalized to the DMSO-treated control value. This value was plotted as a function of the log compound concentration. The best-fitting curve was determined using 4-Parameter Logistic Model/Dose Response/XLfit 4.2, IDBS software and was used to calculate the IC50 value (Table 1). Each panel is representative of 3 or more experiments. In panel G, HepG2 cells were pretreated with DMSO alone or DMSO containing each of the compounds at a concentration of 300 µM for 60 min. Cells were then stimulated with IFN-γ (30 ng/ml) for 30 min. Protein extracts of cells were separated by SDS-PAGE and immunoblotted serially with antibodies to pStat1, total Stat1 and β-actin. Blots were stripped between each immunoblotting. The results shown are representative of 2 or more experiments.

[7] = system: breast cancer cell lines tested; assay: Apoptosis assay, all breast cancer cell lines tested; format: cell-based, Human; settings: any of the breast cancer cell lines tested; data not shown
Procedure: as §1, with “Cell lysate (200 µl) was centrifuged at 200 g for 10 minutes and 20 µl of each supernatant was assayed for nucleosomes using the Cell Death Detection ELISA (Roche Applied Science) as described by the manufacturer.” left out

[8] = system: breast cancer cell lines with constitutive Stat3 activity—MDA-MB-468, MDA-MB-231 and MDA-MB-435; assay: Apoptosis assay, summary over the cell lines with constitutive Stat3 activity; format: cell-based; settings: Homo sapiens
Procedure: as §1, with “100.” for “100. This value was plotted as a function of the log compound concentration and the best-fitting curve and EC50 value determined using 4-Parameter Logistic Model/Dose Response/XLfit 4.2, IDBS software.”
as §2, with “MDA-MB-468” for “Figure 5 Apoptosis induction of breast cancer cell lines by compounds; selective apoptosis of cell lines that are Stat3 dependent. MDA-MB-468”

[9] = system: cell lines MDA-MB-453 and MCF7; assay: Apoptosis assay, summary over the cell lines without constitutive Stat3 activity; format: cell-based; settings: Homo sapiens
Procedure: as §1, with “100.” for “100. This value was plotted as a function of the log compound concentration and the best-fitting curve and EC50 value determined using 4-Parameter Logistic Model/Dose Response/XLfit 4.2, IDBS software.”
as §2, with “MDA-MB-468” for “Figure 5 Apoptosis induction of breast cancer cell lines by compounds; selective apoptosis of cell lines that are Stat3 dependent. MDA-MB-468”

[10] = molecular target: Stat3 (Homo sapiens, UniProt P40763); assay: Stat3/pY-peptide binding assay (SPR, BIAcore)
Sequence of Stat3 (P40763 whole entry, species assumed): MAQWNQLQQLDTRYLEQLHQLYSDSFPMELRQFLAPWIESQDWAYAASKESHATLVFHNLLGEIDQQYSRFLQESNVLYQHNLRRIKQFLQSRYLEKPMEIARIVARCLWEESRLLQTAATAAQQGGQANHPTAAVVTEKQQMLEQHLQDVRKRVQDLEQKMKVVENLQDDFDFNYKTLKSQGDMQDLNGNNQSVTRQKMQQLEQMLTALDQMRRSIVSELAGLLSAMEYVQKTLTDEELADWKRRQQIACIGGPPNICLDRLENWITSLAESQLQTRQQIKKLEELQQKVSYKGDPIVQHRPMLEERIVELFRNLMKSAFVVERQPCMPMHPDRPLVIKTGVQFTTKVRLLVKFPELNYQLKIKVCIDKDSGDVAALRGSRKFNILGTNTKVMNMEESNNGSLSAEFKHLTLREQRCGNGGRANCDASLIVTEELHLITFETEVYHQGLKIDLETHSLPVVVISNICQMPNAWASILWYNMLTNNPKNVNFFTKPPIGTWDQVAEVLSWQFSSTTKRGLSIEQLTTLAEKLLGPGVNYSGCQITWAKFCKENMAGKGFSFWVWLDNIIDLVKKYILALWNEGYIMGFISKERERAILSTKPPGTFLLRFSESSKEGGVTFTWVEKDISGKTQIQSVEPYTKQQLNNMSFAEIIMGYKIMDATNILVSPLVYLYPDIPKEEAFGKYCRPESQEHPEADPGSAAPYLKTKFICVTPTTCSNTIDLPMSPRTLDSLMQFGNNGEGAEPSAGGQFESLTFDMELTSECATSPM
Procedure: A control (Stat3 with DMSO but without compound) was run at the beginning and the end of each cycle (40 sample injections) to ensure that the integrity of the sensor chip was maintained throughout the cycle run. The average of the two controls was normalized to 100% and used to evaluate the effect of each compound on Stat3 binding. Responses were normalized by dividing the value at 2 min by the response obtained in the absence of compounds at 2 min and multiplying by 100.

[11] = system: IL-6-mediated phosphorylation of Stat3; assay: Immunoblot of IL-6-mediated Stat3 phosphorylation in HepG2 cells; format: cell-based; settings: Homo sapiens, compound 60 min, then IL-6 30 ng/ml 30 min, read-out: pStat3 IC50, inhibition of IL-6-mediated Stat3 phosphorylation
Procedure: as §3
Figure 2 Effect of compounds on ligand-mediated Stat3 and Stat1 phosphorylation. […] Cells were then stimulated with IL-6 (30 ng/ml) for 30 min. Protein extracts of cells were separated by SDS-PAGE, blotted and developed serially with antibodies to pStat3, total Stat3 and β-actin. Blots were stripped between each antibody probing. Band intensities were quantified by densitometry. […] The best-fitting curve was determined using 4-Parameter Logistic Model/Dose Response/XLfit 4.2, IDBS software and was used to calculate the IC50 value (Table 1). […]

[12] = system: IL-6-mediated Stat3 nuclear translocation (GFP-Stat3α); assay: HTFM nuclear translocation assay in MEF/GFP-Stat3α cells; format: cell-based, murine
Procedure: Confocal and high-throughput fluorescence microscopy (HTFM) of MEF/GFP-Stat3α cells were performed as described. Briefly, for confocal fluorescence microscopy, cells were grown in 6-well plates containing a cover slip. For HTFM, cells were seeded into 96-well CC3 plates at a density of 5,000 cells/well using an automated plating system. Cells were cultured under standard conditions until 85–90% confluent. Cells were pre-treated with compound for 1 hour at 37°C then stimulated with IL-6 (200 ng/ml) and IL-6sR (250 ng/ml) for 30 minutes to provide optimal Stat3 activation and nuclear translocation in these cells, as described. Cells were fixed with 4% formaldehyde in PEM Buffer (80 mM Potassium PIPES, pH 6.8, 5 mM EGTA pH 7.0, 2 mM MgCl2) for 30 minutes at 4°C, quenched in 1 mg/ml of NaBH4 (Sigma) in PEM buffer and counterstained for 1 min in 4,6-diamidino-2-phenylindole (DAPI; Sigma; 1 mg/ml) in PEM buffer. Cover slips were examined by confocal fluorescent microscopy. Plates were analyzed by automated HTFM using the Cell Lab IC Image Cytometer (IC100) platform and Cytoshop Version 2.1 analysis software (Beckman Coulter). Nuclear translocation is quantified by using the fraction localized in the nucleus (FLIN) measurement. FLIN values were normalized by subtracting the FLIN for unstimulated cells then dividing this difference by the maximum difference (delta, Δ) in FLIN (FLIN in cells stimulated with IL-6/sIL-6R in the absence of compound minus FLIN of unstimulated cells). This ratio was multiplied by 100 to obtain the percentage of maximum difference in FLIN and was plotted, where indicated, as a function of the log compound concentration. The best-fitting curve and IC50 value were determined using 4-Parameter Logistic Model/Dose Response/XLfit 4.2, IDBS software.
Figure 4 Inhibition of cytoplasmic-to-nuclear translocation of Stat3 assessed by confocal and high-throughput fluorescence microscopy (HTFM). […] Coverslips were examined by confocal fluorescent microscopy using filters to detect GFP (column one), DAPI (column two) or both (merge; column three). In panel B, MEF-GFP-Stat3 cells were grown in 96-well plates with optical glass bottoms and pre-treated with the indicated compound at the indicated concentrations in quadruplicate for 1 hour then stimulated with IL-6 (200 ng/ml) and IL-6sR (250 ng/ml) for 30 minutes. Cells were fixed and the plates were examined by high-throughput microscopy to determine the fluorescence intensity in the nucleus (FLIN). The percent of maximum change (delta, Δ) in FLIN was calculated as described in the Methods and plotted as a function of the log of the compound concentration. […] Best-fit curves were determined using 4-Parameter Logistic Model/Dose Response/XLfit 4.2, IDBS software and were used to calculate the IC50 values (Table 2).

[13] = 24 hr, read-out: EC50 apoptosis induction, range over three cell lines

SMILES: CC[C@@]1(O)C(=O)OCc2c1cc1n(c2=O)Cc2cc3ccccc3nc2-1 [CAM, camptothecin, reference compound]
- EC50 [1]: 0.13 µM
- EC50 [2]: 1.62 µM
- EC50 [3]: 1.64 µM
- EC50 [4]: 0.93 µM
- EC50 [5]: 0.74 µM

SMILES: COC(=O)Cc1c(C)c2ccc(OCc3ccc(C(=O)OC)cc3)c(C)c2oc1=O [Cpd3-7, methyl 4-({[3-(2-methoxy-2-oxoethyl)-4,8-dimethyl-2-oxo-2H-chromen-7-yl]oxy}methyl)benzoate]
- Block of IFN-γ-stimulated Stat1 phosphorylation [6]: did not
- Apoptosis induction (in words) [7]: neither Cpd3-2 nor Cpd3-7 induced apoptosis

SMILES: CCN1C(=O)C(=Cc2ccc(-c3ccc(C(=O)O)cc3)o2)SC1=S [Cpd30, 4-{5-[(3-ethyl-4-oxo-2-thioxo-1,3-thiazolidin-5-ylidene)methyl]-2-furyl}benzoic acid]
- Block of IFN-γ-stimulated Stat1 phosphorylation [6]: did not
- EC50 [1]: > 300 µM
- EC50 [2]: 92 µM
- EC50 [3]: 16.3 µM
- EC50 [4]: > 300 µM
- EC50 [5]: 6.42 µM
- EC50 [8, 13]: 6.4 to 92.2 µM
- EC50 ([9]; concentrations up to 300 µM, read-out: EC50 apoptosis induction, MDA-MB-453 and MCF7): > 300 µM

SMILES: CCN1C(=O)C(=Cc2ccc(-c3cc(C(=O)O)ccc3Cl)o2)C(=O)N(CC)C1=S [Cpd30-12, 4-chloro-3-{5-[(1,3-diethyl-4,6-dioxo-2-thioxotetrahydro-5(2H)-pyrimidinylidene)methyl]-2-furyl}benzoic acid]
- IC50 [10]: 114 µM
- IC50 [11]: 60 µM
- Block of IFN-γ-stimulated Stat1 phosphorylation [6]: blocked Stat1 phosphorylation
- IC50 ([12]; Mus musculus, compound 1 hour, then IL-6 200 ng/ml and IL-6sR 250 ng/ml 30 min, read-out: HTFM IC50, inhibition of IL-6-mediated Stat3 nuclear translocation): > 300 µM
- Block of ligand-mediated nuclear translocation of GFP-Stat3α (in words) ([12]; preincubation with compound): not

SMILES: O=C(O)CSc1cc(NS(=O)(=O)c2ccc(C(=O)O)cc2)c2ccccc2c1O [Cpd188, 4-[({3-[(carboxymethyl)thio]-4-hydroxy-1-naphthyl}amino)sulfonyl]benzoic acid]
- Block of IFN-γ-stimulated Stat1 phosphorylation [6]: did not
- EC50 [1]: 17.2 µM
- EC50 [2]: 3.96 µM
- EC50 [3]: 7.01 µM
- EC50 [4]: 15.5 µM
- EC50 [5]: 0.73 µM
- EC50 [8, 13]: 0.7 to 7 µM
- EC50 ([8]; read-out: EC50 apoptosis induction, mean±SD over three cell lines): 3.9 ± 3.1 µM
- EC50 ([9]; read-out: EC50 apoptosis induction, mean±SD over MDA-MB-453 and MCF7): 16.4 ± 1.2 µM
